Laboratory results taken from PMC7835349 (Communications Biology, 2021).
Where “and” joins values, the source holds several entries; their conditions need not be identical. Equal values may be shown once.

Test system: telemetered dogs
Test: Conscious dog telemetry (QRS amplitude and other cardiovascular parameters, tolerability)
[1] = dog, 0.2 mg/kg 0.5h infusion, -0.75 h, 0.2 mg/kg
[2] = dog, 0.2 mg/kg 0.5h infusion, -1 h, 0.2 mg/kg
[3] = dog, 0.2 mg/kg 0.5h infusion, -1.25 h, 0.2 mg/kg
[4] = dog, 0.85 mg/kg 0.5h infusion, 0.5 h, 0.85 mg/kg
[5] = dog, 0.85 mg/kg 0.5h infusion, 0.75 h, 0.85 mg/kg
[6] = dog, 0.85 mg/kg 0.5h infusion, 1 h, 0.85 mg/kg
[7] = dog, 0.85 mg/kg 0.5h infusion, 1.5 h, 0.85 mg/kg
[8] = dog, 0.85 mg/kg 0.5h infusion, 2 h, 0.85 mg/kg
[9] = dog, 0.85 mg/kg 0.5h infusion, 3 h, 0.85 mg/kg
[10] = dog, 0.85 mg/kg 0.5h infusion, 4 h, 0.85 mg/kg
[11] = dog, 0.85 mg/kg 0.5h infusion, 6 h, 0.85 mg/kg
[12] = dog, 0.85 mg/kg 0.5h infusion, 8 h, 0.85 mg/kg
[13] = dog, 0.85 mg/kg 0.5h infusion, 12 h, 0.85 mg/kg
[14] = dog, 0.85 mg/kg 0.5h infusion, 16 h, 0.85 mg/kg
[15] = dog, 0.85 mg/kg 0.5h infusion, 22 h, 0.85 mg/kg
[16] = dog, 0.85 mg/kg 0.5h infusion, -0.75 h, 0.85 mg/kg
[17] = dog, 0.85 mg/kg 0.5h infusion, -1 h, 0.85 mg/kg
[18] = dog, 0.85 mg/kg 0.5h infusion, -1.25 h, 0.85 mg/kg
[19] = dog, AZD4320 0.2 mg/kg, 0.5 h infusion
[20] = dog, AZD4320 0.85 mg/kg, 0.5 h infusion
[21] = dog, AZD4320 0.85 mg/kg, 3 h infusion
[22] = dog, AZD4320 1 mg/kg, 0.5 h infusion
[23] = dog, AZD4320 1.75 mg/kg, 0.5 h infusion

CN(CCO)CCC(CSc1ccccc1)Nc1ccc(S(=O)(=O)NC(=O)c2ccc(N3CCC(C(O)c4ccccc4-c4ccc(Cl)cc4)CC3)cc2)cc1S(=O)(=O)C(F)(F)F (stereo not shown) [AZD4320]
Systolic blood pressure (mmHg) (dog, 0.2 mg/kg 0.5h infusion, 22 h, 0.2 mg/kg): 156 mmHg and 142 mmHg
ECG PR interval [1]: 90 ms and 106 ms and 89 ms
ECG QRS duration [1]: 37 ms and 40 ms
Left ventricular -dP/dt (mmHg/s) [1]: 3499 mmHg/s and 3284 mmHg/s and 4521 mmHg/s
QRS amplitude (% baseline) [1]: 97 % baseline and 88 % baseline and 93 % baseline
Systolic blood pressure (mmHg) [1]: 168 mmHg and 148 mmHg and 160 mmHg
ECG PR interval [2]: 91 ms and 102 ms and 82 ms
ECG QRS duration [2]: 38 ms and 40 ms and 37 ms
Left ventricular -dP/dt (mmHg/s) [2]: 3364 mmHg/s and 3529 mmHg/s and 4819 mmHg/s
QRS amplitude (% baseline) [2]: 99 % baseline and 90 % baseline and 93 % baseline
Systolic blood pressure (mmHg) [2]: 161 mmHg and 160 mmHg and 157 mmHg
ECG PR interval [3]: 90 ms and 95 ms and 93 ms
ECG QRS duration [3]: 37 ms and 40 ms
Left ventricular -dP/dt (mmHg/s) [3]: 3238 mmHg/s and 3347 mmHg/s and 4656 mmHg/s
QRS amplitude (% baseline) [3]: 104 % baseline and 91 % baseline and 97 % baseline
Systolic blood pressure (mmHg) [3]: 147 mmHg and 150 mmHg and 151 mmHg
QRS amplitude (% baseline) (dog, 0.2 mg/kg 0.5h infusion, -[…]): 100 % baseline
ECG PR interval [4]: 115 ms and 79 ms
ECG QRS duration [4]: 45 ms and 37 ms and 40 ms
Left ventricular -dP/dt (mmHg/s) [4]: 3662 mmHg/s and 3777 mmHg/s and 3464 mmHg/s
QRS amplitude (% baseline) [4]: 94 % baseline and 95 % baseline and 97 % baseline
Systolic blood pressure (mmHg) [4]: 155 mmHg and 158 mmHg
ECG PR interval [5]: 119 ms and 78 ms
ECG QRS duration [5]: 44 ms and 38 ms and 40 ms
Left ventricular -dP/dt (mmHg/s) [5]: 3170 mmHg/s and 3744 mmHg/s and 3322 mmHg/s
QRS amplitude (% baseline) [5]: 99 % baseline and 91 % baseline and 104 % baseline
Systolic blood pressure (mmHg) [5]: 154 mmHg and 157 mmHg
ECG PR interval [6]: 115 ms and 91 ms
ECG QRS duration [6]: 44 ms and 37 ms and 40 ms
Left ventricular -dP/dt (mmHg/s) [6]: 3366 mmHg/s and 3696 mmHg/s and 3150 mmHg/s
QRS amplitude (% baseline) [6]: 100 % baseline and 90 % baseline and 102 % baseline
Systolic blood pressure (mmHg) [6]: 135 mmHg and 151 mmHg
ECG PR interval [7]: 117 ms and 112 ms
ECG QRS duration [7]: 44 ms and 39 ms and 40 ms
Left ventricular -dP/dt (mmHg/s) [7]: 3030 mmHg/s and 3166 mmHg/s
QRS amplitude (% baseline) [7]: 78 % baseline and 86 % baseline
Systolic blood pressure (mmHg) [7]: 147 mmHg and 138 mmHg
ECG PR interval [8]: 111 ms and 87 ms
ECG QRS duration [8]: 42 ms and 36 ms and 39 ms
Left ventricular -dP/dt (mmHg/s) [8]: 2904 mmHg/s and 3371 mmHg/s
QRS amplitude (% baseline) [8]: 75 % baseline and 83 % baseline
Systolic blood pressure (mmHg) [8]: 144 mmHg and 171 mmHg
ECG PR interval [9]: 99 ms and 81 ms
ECG QRS duration [9]: 37 ms and 33 ms
QRS amplitude (% baseline) [9]: 59 % baseline and 60 % baseline
Systolic blood pressure (mmHg) [9]: 142 mmHg and 156 mmHg
ECG PR interval [10]: 93 ms and 79 ms
ECG QRS duration [10]: 36 ms and 33 ms
QRS amplitude (% baseline) [10]: 56 % baseline and 60 % baseline
Systolic blood pressure (mmHg) [10]: 128 mmHg and 137 mmHg
ECG PR interval [11]: 89 ms and 79 ms
ECG QRS duration [11]: 37 ms and 35 ms
Left ventricular -dP/dt (mmHg/s) [11]: 2074 mmHg/s and 2402 mmHg/s
QRS amplitude (% baseline) [11]: 67 % baseline and 70 % baseline
Systolic blood pressure (mmHg) [11]: 116 mmHg and 117 mmHg
ECG PR interval [12]: 88 ms and 83 ms
ECG QRS duration [12]: 37 ms and 34 ms
Left ventricular -dP/dt (mmHg/s) [12]: 2367 mmHg/s and 2612 mmHg/s
QRS amplitude (% baseline) [12]: 78 % baseline and 80 % baseline
Systolic blood pressure (mmHg) [12]: 120 mmHg and 124 mmHg
ECG PR interval [13]: 85 ms
ECG QRS duration [13]: 40 ms and 36 ms
Left ventricular -dP/dt (mmHg/s) [13]: 3043 mmHg/s and 2589 mmHg/s
QRS amplitude (% baseline) [13]: 84 % baseline and 70 % baseline
Systolic blood pressure (mmHg) [13]: 128 mmHg and 131 mmHg
ECG PR interval [14]: 102 ms and 87 ms
ECG QRS duration [14]: 42 ms and 37 ms
Left ventricular -dP/dt (mmHg/s) [14]: 3119 mmHg/s and 2829 mmHg/s
QRS amplitude (% baseline) [14]: 98 % baseline and 70 % baseline
Systolic blood pressure (mmHg) [14]: 130 mmHg and 147 mmHg
ECG PR interval [15]: 112 ms and 84 ms
ECG QRS duration [15]: 44 ms and 36 ms
Left ventricular -dP/dt (mmHg/s) [15]: 3111 mmHg/s and 3851 mmHg/s
QRS amplitude (% baseline) [15]: 101 % baseline and 78 % baseline
Systolic blood pressure (mmHg) [15]: 132 mmHg and 149 mmHg
ECG PR interval [16]: 111 ms and 99 ms
ECG QRS duration [16]: 45 ms and 39 ms
Left ventricular -dP/dt (mmHg/s) [16]: 3973 mmHg/s and 3847 mmHg/s and 2891 mmHg/s
QRS amplitude (% baseline) [16]: 100 % baseline and 105 % baseline and 103 % baseline
Systolic blood pressure (mmHg) [16]: 162 mmHg and 159 mmHg
ECG PR interval [17]: 108 ms and 98 ms
ECG QRS duration [17]: 44 ms and 36 ms and 39 ms
Left ventricular -dP/dt (mmHg/s) [17]: 3612 mmHg/s and 3810 mmHg/s and 3070 mmHg/s
QRS amplitude (% baseline) [17]: 101 % baseline and 100 % baseline and 107 % baseline
Systolic blood pressure (mmHg) [17]: 149 mmHg and 163 mmHg
ECG PR interval [18]: 110 ms and 96 ms and 89 ms
ECG QRS duration [18]: 44 ms and 37 ms and 40 ms
Left ventricular -dP/dt (mmHg/s) [18]: 3200 mmHg/s and 3594 mmHg/s and 2862 mmHg/s
QRS amplitude (% baseline) [18]: 100 % baseline and 105 % baseline
Systolic blood pressure (mmHg) [18]: 142 mmHg and 165 mmHg and 139 mmHg
QRS amplitude (% baseline) (dog, 0.85 mg/kg 0.5h infusion, -[…]): 100 % baseline
tolerability (dog, 1 mg/kg AZD4320): not tolerated
Effects [19]: No effect level
Tolerated? [19]: Yes
Effects other than QRS amplitude [20]: ↓SBP, ↑HR, ↓dP/dt-, ↓PR interval, ↓QRS interval, ↓LVEDP
Tolerated? [20]: Yes
↓QRS amplitude (% decrease) [20]: 49%
Tolerated? [21]: Yes
↓QRS amplitude (% decrease) [21]: 32%
Effects other than QRS amplitude [22]: poorly tolerated
Tolerated? [22]: No
↓QRS amplitude (% decrease) [22]: 75%
Effects other than QRS amplitude [23]: ↓SBP, ↑HR, ↓dP/dt-, ↓PR interval, ↓QRS interval, ↓LVEDP
Tolerated? [23]: No
↓QRS amplitude (% decrease) [23]: 94%
cardiovascular changes (preclinical development, Supplementary Fig. 1a, b): dose-dependent decreases in QRS amplitude, QRS duration & PR intervals, blood pressure, left ventricular pressure and contractility
